# Test results published in patent publication US20250235504A1, “ENHANCEMENT OF CD47 BLOCKADE WITH TAXANES FOR CD47+ CANCER THERAPY” (Pfizer Inc., priority 2021, published 2025).
# Columns and labels:
# [1] = test system: human B cell lymphoma cell line (Toledo); test: Macrophage phagocytosis assay with VPD450-labeled Toledo cells (flow cytometry); type: cell-based; details: two hours co-culture, FIG. 1
# Description: Heparinized whole blood was obtained from normal healthy human donors (Biological Specialty Corporation) and informed consent was obtained from all donors. Peripheral blood mononuclear cells (PBMCs) were isolated over Ficoll-Paque Plus density gradient (GE Healthcare) and CD14+ monocytes were isolated from PBMCs by positive selection using CD14 antibody-coated MicroBead separation (Miltenyi Biotec). Monocytes were differentiated into macrophages by culturing for seven days in X-Vivo-15 media (Lonza) supplemented with M-CSF (PeproTech), at which point paclitaxel was added to the macrophage culture for an additional six days. On the day of the phagocytosis assay, macrophages were co-cultured with violet proliferation dye 450 (VPD450)-labeled human B cell lymphoma cell line (Toledo) in the presence of 1 μM human SIRPαFc (IgV domain of human SIRPα variant 2 fused with IgG1 Fc), 1 μM control Fc [human IgG1 Fc region (hinge-CH2-CH3)] or nothing (no treatment, NT) for two hours. Phagocytosis was assessed as % VPD450+ cells of live, single CD14+CD11b+ macrophages by flow cytometry. Results are shown in FIG. 1 and are duplicates from a single experiment.
# human CD47 (human) = human CD47 (human) (UniProt Q08722); test: cell-based or functional assay
# UniProt Q08722, sequence (Q08722 19-323): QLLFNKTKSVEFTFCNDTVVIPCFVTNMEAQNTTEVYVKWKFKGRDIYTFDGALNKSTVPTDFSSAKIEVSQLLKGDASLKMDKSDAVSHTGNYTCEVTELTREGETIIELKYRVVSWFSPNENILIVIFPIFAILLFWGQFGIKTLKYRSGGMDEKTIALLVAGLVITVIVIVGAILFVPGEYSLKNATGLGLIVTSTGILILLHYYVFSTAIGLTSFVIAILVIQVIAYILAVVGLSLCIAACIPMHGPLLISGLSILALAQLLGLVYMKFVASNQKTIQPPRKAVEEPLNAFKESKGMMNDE
"% phagocytosis (% VPD450+ cells of live, single CD14+CD11b+ macrophages) of Toledo cells, 1 µM SIRPαFc, macrophages cultured in paclitaxel (human CD47 (human)) [%]","% phagocytosis (% VPD450+ cells of live, single CD14+CD11b+ macrophages) of Toledo cells, 1 µM SIRPαFc, macrophages not cultured in paclitaxel (human CD47 (human)) [%]",Substance,"% phagocytosis (% VPD450+ cells of live, single CD14+CD11b+ macrophages) ([1]; 1 μM SIRPαFc, ""no treatment"" macrophages (not cultured in paclitaxel))",phagocytosis of the VPD450-labeled B cell lymphoma cells (in words) ([1]; 1 μM protein)
–,–,SIRPαFc: IgV domain of human SIRPα variant 2 fused with IgG1 Fc,around 9%,substantial phagocytosis
15,9,human SIRPαFc (IgV domain of human SIRPα variant 2 fused with IgG1 Fc) (Fc fusion),–,–
